Laboratory results: US9822368B2, “Modulators of intracellular chloride concentration for treating down syndrome” (Fondazione Istituto Italiano di Tecnologia, priority 2013, dated 2017)
Entries after “also recorded” stand apart in the source; their conditions may differ.

Tests used:
CA1 pyramidal neurons = assay: Cell-attached recording of spontaneous spiking activity in acute hippocampal slices; type: cell-based, Ts65Dn mice; conditions: Ts65Dn neurons
[1] = tested on: hippocampal CA3 pyramidal neurons; assay: Whole-cell voltage clamp recordings of spontaneous excitatory postsynaptic currents (sEPSCs) in acute brain slices; type: cell-based, Ts65Dn mice; conditions: acute bumetanide application, P15 Ts65Dn slices, -70 mV
From the text: FIG. 1 represents the effect of acute bumetanide on the spontaneous activity in Ts65Dn mice at P15 compared to control values. Whole-cell voltage clamp recordings of spontaneous excitatory postsynaptic currents (sEPSCs) at −70 mV from individual hippocampal CA3 pyramidal neurons in acute […] brain slices from P15 Ts65Dn. (A) Representative traces of sEPSCs recorded from Ts65Dn mice in control and in the presence of bumetanide. (B) Average values of frequency of sEPSCs recorded in control mice (n=9), in Ts65Dn mice (n=9) **p<0.006 (two-tails two-samples t-test) and with bumetanide application (n=9), ***p<0.001 (two-tails paired t-test).

hippocampal CA3CA1 LTP = assay: Hippocampal CA3-CA1 LTP (fEPSP slope after TBS) in hippocampal slices; type: cell-based, Ts65Dn mice; conditions: bath application of bumetanide (10 μM), Ts65Dn slices, last 5 min of recordings, 60 min after TBS
Method: FIG. 4 represents the effect of bumetanide bath application on hippocampal CA3CA1 LTP in Ts65Dn mice. […] Numbers in parentheses: number of animals utilized. Insets: Average of 10 fEPSP traces recorded for each experimental group before (continuous line) and 60 min after TBS (dashed line). Stimulus artefacts have been deleted from traces for clarity. Scale bars: vertical, 1 mV; horizontal, 10 ms.

Ts65Dn mice [2] = assay: Contextual fear conditioning test; type: in vivo; conditions: for associative memory (contextual fear conditioning): Ts65Dn mice
From the text: (§1) FIG. 5 represents the effect of bumetanide systemic treatment on cognitive functions in behavioral tasks in Ts65Dn mice. […] (B) Top, schematic representation of the contextual fear conditioning test. […] (C) Top, schematic representation of the object location test. […] (D) Top, schematic representation of the novel object recognition task. […] For all panels, histograms represent average±SEM, whereas circles indicate data from single animals.

Ts65Dn mice [3] = assay: Novel object recognition task; type: in vivo; conditions: for object novelty discrimination (novel object recognition task): Ts65Dn mice
From the text: as §1

[4] = tested on: CA1 hippocampal pyramidal neurons; assay: Gramicidin perforated patch-clamp of GABA currents (reversal potential EC1) in hippocampal slices; type: cell-based, Ts65Dn and WT mice; conditions: for EC1 values: 20 min after bath application of bumetanide (10 μM)
From the text: The vertical dotted lines indicate the value of the reversal potential on the x axis. Insets, sample traces of GABA-induced currents at different holding potentials. Scale bars: vertical, 50 pA; horizontal, 50 ms. […] Average resting potentials (dotted lines) were not different in Ts65Dn and WT neurons.

Ts65Dn mice [5] = assay: Object location test; type: in vivo
From the text: as §1

[6] = tested on: children with Down syndrome; conditions: even at doses associated with adverse effects; cited from earlier work
[7] = summary statement, duration not stated

Structure (SMILES): NCCCC(=O)O [GABA]
- spike frequency (CA1 pyramidal neurons; bath application of GABA (10 μM), 10-12 weeks of age): increased spike frequency

Structure (SMILES): CCCCNc1cc(C(=O)O)cc(S(N)(=O)=O)c1Oc1ccccc1 [bumetanide]
- spike frequency increase induced by GABA (CA1 pyramidal neurons; co-treatment GABA and bumetanide (10 μM)): reverted this effect
- ongoing excitatory glutamatergic activity (frequency of sEPSCs) [1]: reduces elevated glutamatergic activity
- LTP (increase in the slope of fEPSP) (hippocampal CA3CA1 LTP): restores LTP; also recorded: rescued this deficit
- associative memory (contextual fear conditioning) (Ts65Dn mice [2]; bumetanide systemic treatment for 1 week (1W)): rescued memory deficit
- associative memory (contextual fear conditioning) (Ts65Dn mice [2]; bumetanide systemic treatment for 4 weeks (4W)): rescued memory deficit
- memory tests (Ts65Dn mice [2]; [7]): rescues the behavioral deficient novel object recognition and memory tests
- novel object recognition test (Ts65Dn mice [3]; [7]): rescues the behavioral deficient novel object recognition
- object novelty discrimination (novel object recognition task) (Ts65Dn mice [3]; treatment for 1 week): restored object novelty discrimination
- object novelty discrimination (novel object recognition task) (Ts65Dn mice [3]; treatment for 4 weeks): restored object novelty discrimination
- EC1 values ([4]; Ts65Dn cells): rescued the depolarized EC1
- EC1 values ([4]; WT mice): unaltered
- polarity of the actions of GABA ([4]; Ts65Dn mice, summary statement): restores LTP, hyperpolarizing GABA actions
- spatial memory (object location test) (Ts65Dn mice [5]; after 1 week of treatment): rescued spatial memory deficits
- spatial memory (object location test) (Ts65Dn mice [5]; after 4 weeks of treatment): rescued spatial memory deficits

Structure (SMILES): NC(=O)CN1CCCC1=O [piracetam]
- cognitive and behavioral measures [6]: neither cognitive nor behavioral measures demonstrated improvement
